Results as given in patent US9422296B2, “Fast-dissociating dopamine 2 receptor antagonists” (Janssen Pharmaceutica NV, priority 2007, dated 2016).
Structures can show the parent of a compound that is named as a salt. Where two headings read alike, the source gives them in different places.

Legend:
[1] = target: T1, human Dopamine D2L receptor (Homo sapiens, UniProt P14416); assay: In vitro binding affinity for human D2L receptor ([3H]spiperone); conditions: membranes of human D2L receptor-transfected CHO cells, read-out: D2L binding pIC50 (converted)
T1 construct: expressed in transfected cells; host or cells: CHO cells (membranes)
Text: In order to find antipsychotic compounds active against positive and negative symptoms and cognitive impairment, and having an improved safety profile (low EPS incidence and no metabolic disorders), we have screened for compounds selectively interacting with the dopamine D2 receptor and dissociating fast from this receptor, and further having affinity for the dopamine D3 receptor as well as the serotonin 5-HT-6 receptor. Compounds were first screened for their D2 affinity in a binding assay using [^3H]spiperone and human D2L receptor cell membranes.
Pharmacology In Vitro Binding Affinity for Human D2L Receptor
Frozen membranes of human Dopamine D2L receptor-transfected CHO cells were thawed, briefly homogenised using an Ultra-Turrax T25 homogeniser and diluted in Tris-HCl assay buffer containing NaCl, CaCl2, MgCl2, KCl (50, 120, 2, 1, and 5 mM respectively, adjusted to pH 7.7 with HCl) to an appropriate protein concentration optimised for specific and non-specific binding. Radioligand [^3H]Spiperone (NEN, specific activity ˜70 Ci/mmol) was diluted in assay buffer at a concentration of 2 nmol/L. Prepared radioligand (50 μl), along with 50 μl of either the 10% DMSO control, Butaclamol (10^−6 mol/1 final concentration), or compound of interest, was then incubated (30 min, 37° C.) with 400 μl of the prepared membrane solution. Membrane-bound activity was filtered through a Packard Filtermate harvester onto GF/B Unifilterplates and washed with ice-cold Tris-HCl buffer (50 mM; pH 7.7; 6×0.5 ml). Filters were allowed to dry before adding scintillation fluid and counting in a Topcount scintillation counter. Percentage specific bound and competition binding curves were calculated using S-Plus software (Insightful).

[2] = target: T2, human Serotonin 5HT6 receptor (Homo sapiens, UniProt P50406); assay: In vitro binding affinity for human 5HT6 receptor ([3H]lysergic acid diethylamide); conditions: [3H]LSD, membranes of human 5HT6 receptor-transfected HEK cells; for IC50: read-out: 5-HT6 binding pIC50 (converted)
T2 construct: expressed in transfected cells; host or cells: HEK cells (membranes)
Description: In Vitro Binding Affinity for Human 5HT6 Receptor
Frozen membranes of human Serotonin 5HT6 receptor-transfected HEK cells were thawed, briefly homogenized using an Ultra-Turrax T25 homogeniser and diluted in 50 mM Tris-HCl assay buffer containing 10 mM MgCl2, 1 mM EDTA and 10 μM Pargyline (adjusted to pH 7.4 with HCl) to an appropriate protein concentration optimized for specific and non-specific binding. Radioligand [^3H]Lysergic acid diethylamide (Perkin Elmer, specific activity ˜80 Ci/mmol) was diluted in assay buffer at a concentration of 20 nM. Radioligand (20 μl), along with 40 μl of either the 10% DMSO control, Methiothepine (10^−5 M final concentration), or compound of interest, was then incubated with 70 μl of the prepared membrane solution and 70 μl of WGA coated PVT beads (0.25 mg/well final concentration). After shaking for 24 hours at RT plates were counted in a Topcount™ scintillation counter. Percentage specific binding and competition binding curves were calculated using S-Plus software (Insightful).

[3] = target: T3, human Dopamine D3 receptor (Homo sapiens, UniProt P35462); assay: In vitro binding affinity for human D3 receptor ([125I]iodosulpride)
T3 construct: expressed in transfected cells; host or cells: CHO cells (membranes)
Description: In Vitro Binding Affinity for Human D3 Receptor
Frozen membranes of human Dopamine D3 receptor-transfected CHO cells were thawed, briefly homogenized using an Ultra-Turrax T25 homogeniser and diluted in 50 mM Tris-HCl assay buffer containing 120 mM NaCl, 2 mM CaCl2, 1 mM MgCl2, 5 mM KCl and 0.1% BSA (adjusted to pH 7.4 with HCl) to an appropriate protein concentration optimized for specific and non-specific binding. Radioligand [^125I]Iodosulpride (Amersham, specific activity ˜2000 Ci/mmol) was diluted in assay buffer at a concentration of 2 nM. Prepared radioligand (20 μl), along with 40 μl of either the 10% DMSO control, Risperidone (10^−6M final concentration), or compound of interest, was then incubated with 70 μl of the prepared membrane solution and 70 μl of WGA coated PVT beads (0.25 mg/well final concentration). After shaking for 24 hours at RT plates were counted in a Topcount™ scintillation counter. Percentage specific binding and competition binding curves were calculated using S-Plus software (Insightful).

[4] = [125I]iodosulpride, membranes of human D3 receptor-transfected CHO cells, read-out: D3 binding pIC50 (converted)

T2 sequence (P50406 whole entry): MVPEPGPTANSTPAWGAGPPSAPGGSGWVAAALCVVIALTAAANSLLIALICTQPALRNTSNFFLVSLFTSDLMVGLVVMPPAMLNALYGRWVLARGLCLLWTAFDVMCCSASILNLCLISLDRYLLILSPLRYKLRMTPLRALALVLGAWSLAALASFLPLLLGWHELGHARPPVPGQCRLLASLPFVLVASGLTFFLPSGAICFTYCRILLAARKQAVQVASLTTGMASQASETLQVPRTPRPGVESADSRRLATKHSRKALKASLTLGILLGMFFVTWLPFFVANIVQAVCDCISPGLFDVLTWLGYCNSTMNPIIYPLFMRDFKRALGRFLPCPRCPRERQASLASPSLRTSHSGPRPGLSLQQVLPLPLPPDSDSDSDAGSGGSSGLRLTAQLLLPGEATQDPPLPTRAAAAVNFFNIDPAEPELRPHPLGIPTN
T1 sequence (P14416 whole entry): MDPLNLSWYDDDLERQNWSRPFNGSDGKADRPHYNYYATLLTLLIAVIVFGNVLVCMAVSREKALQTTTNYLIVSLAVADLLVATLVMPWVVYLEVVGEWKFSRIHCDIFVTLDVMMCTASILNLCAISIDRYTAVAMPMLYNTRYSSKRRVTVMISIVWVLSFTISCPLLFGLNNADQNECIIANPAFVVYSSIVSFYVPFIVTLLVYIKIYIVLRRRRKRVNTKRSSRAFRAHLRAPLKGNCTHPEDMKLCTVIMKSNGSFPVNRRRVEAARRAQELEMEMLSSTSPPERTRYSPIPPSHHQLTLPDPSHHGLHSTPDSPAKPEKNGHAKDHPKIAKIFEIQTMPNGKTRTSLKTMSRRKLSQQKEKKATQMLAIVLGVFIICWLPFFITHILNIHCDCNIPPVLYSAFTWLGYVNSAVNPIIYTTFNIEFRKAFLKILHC
T3 sequence (P35462 whole entry): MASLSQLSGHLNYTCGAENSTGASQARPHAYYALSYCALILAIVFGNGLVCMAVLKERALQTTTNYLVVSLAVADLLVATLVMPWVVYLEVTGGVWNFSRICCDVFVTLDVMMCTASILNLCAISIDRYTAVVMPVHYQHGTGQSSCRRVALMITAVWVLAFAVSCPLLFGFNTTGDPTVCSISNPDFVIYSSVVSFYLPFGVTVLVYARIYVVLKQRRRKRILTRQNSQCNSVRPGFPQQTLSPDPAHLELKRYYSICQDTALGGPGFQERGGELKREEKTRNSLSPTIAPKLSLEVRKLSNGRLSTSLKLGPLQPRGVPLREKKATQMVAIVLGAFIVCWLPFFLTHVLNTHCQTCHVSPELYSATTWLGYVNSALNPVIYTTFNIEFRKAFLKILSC

5-HT6 binding pIC50 [2]	SMILES	melting point	IC50 [1]	IC50 [3, 4]	IC50 [2]	IC50 [3]
	CN1CCN(c2cc(-c3ccccc3)c(C(F)(F)F)nn2)CC1 (as salt: hydrochloric acid salt) [Example E22]	163.3 °C				
>5	Fc1ccc(CN2CCN(c3cc(-c4ccccc4)c(C(F)(F)F)nn3)CC2)cc1F [Example E21]	185.1 °C	2000 nM	1480 nM		
	FC(F)(F)c1nnc(N2CCNCC2)cc1-c1ccc(-c2ccccc2)cc1 [Example E35]	199.1 °C	2690 nM	107 nM	1510 nM	
	Oc1cccc(-c2cc(N3CCNCC3)nnc2C(F)(F)F)c1 [Example E13]		5130 nM	> 10000 nM	3550 nM	
	Cc1cc(F)ccc1-c1cc(N2CCNCC2)nnc1C(F)(F)F [Example E28]		372 nM	47.9 nM	245 nM	
	FC(F)(F)c1nnc(N2CCNCC2)cc1-c1ccc(Br)cc1 [Example E14]	138.2 °C	4070 nM	> 10000 nM	4270 nM	
	Cc1ccc(-c2cc(N3CCNCC3)nnc2C(F)(F)F)cc1 [Example E11]	110.6 °C	1260 nM	89.1 nM	741 nM	
	Fc1ccccc1-c1cc(N2CCNCC2)nnc1C(F)(F)F [Example E33]		1230 nM		1290 nM	52.5 nM
	FC(F)(F)c1nnc(N2CCNCC2)cc1-c1cc(Cl)ccc1Cl [Example E34]		4680 nM	87.1 nM	794 nM	
	CN(C)c1ccc(-c2cc(N3CCNCC3)nnc2C(F)(F)F)cc1 [Example E32]		> 10000 nM	1290 nM	977 nM	
	FC(F)(F)c1nnc(N2CCN(Cc3ccccc3)CC2)cc1-c1ccccc1 [Example E36]		33.1 nM	> 10000 nM	6610 nM	
	CC1CN(c2cc(-c3ccccc3)c(C(F)(F)F)nn2)C(C)CN1 (racemic) (as salt: hydrochloric acid salt) [Example E26]	273 °C				
	CCCCN1CCN(c2cc(-c3ccccc3)c(C(F)(F)F)nn2)CC1 [Example E25]	102.9 °C	69.2 nM	2.63 nM	2690 nM	
	COc1ccccc1-c1cc(N2CCNCC2)nnc1C(F)(F)F [Example E31]		> 10000 nM	479 nM	1120 nM	
	Cc1csc(-c2cc(N3CCNCC3)nnc2C(F)(F)F)c1 [Example E30]	98.1 °C	759 nM	53.7 nM	562 nM	
	FC(F)(F)c1nnc(N2CCN3CCCC3C2)cc1-c1ccccc1 (racemic) (as salt: hydrochloric acid salt) [Example E5, 2-(5-Phenyl-6-trifluoromethyl-pyridazin-3-yl)-octahydro-pyrrolo[1,2-a]pyrazine]	104.2 °C				
	FC(F)(F)c1nnc(N2CCNCC2)cc1-c1cccc2ccccc12 (as salt: hydrochloric acid salt) [Example E18]	281.8 °C				
	FC(F)(F)c1nnc(N2CCNCC2)cc1-c1cc(Cl)ccc1Cl (as salt: hydrochloric acid salt) [Example E34]	286.3 °C				
	Fc1cccc(-c2cc(N3CCNCC3)nnc2C(F)(F)F)c1 [Example E15]	144.7 °C	5750 nM	631 nM	1550 nM	

5-HT6 binding pIC50 [2]	SMILES	melting point	IC50 [1]	IC50 [3, 4]	IC50 [2]	IC50 [3]
	CC1CN(c2cc(-c3ccccc3)c(C(F)(F)F)nn2)C(C)CN1 (racemic) [Example E26]		6030 nM	> 10000 nM	2290 nM	
	FC(F)(F)c1nnc(N2CCN(Cc3ccccn3)CC2)cc1-c1ccccc1 [Example E38]		282 nM	87.1 nM	> 10000 nM	
	Clc1nnc(N2CCNCC2)cc1-c1ccccc1 [Example E20]	173.9 °C	1410 nM	151 nM	4370 nM	
	FC(F)(F)c1nnc(N2CCNCC2)cc1-c1cccc2ccccc12 [Example E18]		7760 nM	> 10000 nM	158 nM	
	FC(F)(F)c1nnc(N2CCN(CC3CC3)CC2)cc1-c1ccccc1 [Example E39]		60.3 nM	> 10000 nM	3890 nM	
	CCN1CCN(c2cc(-c3ccccc3)c(C(F)(F)F)nn2)CC1 (as salt: hydrochloric acid salt) [Example E2, 6-(4-Ethylpiperazin-1-yl)-4-phenyl-3-trifluoromethyl-pyridazine]	281.9 °C				
	FC(F)(F)c1nnc(N2CCNCC2)cc1-c1ccc2ccccc2c1 [Example E17]	128.1 °C	7940 nM	398 nM	437 nM	
	FC(F)(F)c1nnc(N2CCNCC2)cc1-c1ccc(Cl)s1 [Example E27, 4-(5-Chloro-thiophen-2-yl)-6-piperazin-1-yl-3-trifluoromethyl-pyridazine]		1510 nM	> 10000 nM	794 nM	
	FC(F)(F)c1nnc(N2CCNCC2)cc1-c1ccc(Cl)cc1 [Example E12]	198.2 °C	3630 nM	347 nM	1740 nM	
	C[C@@H]1CN(c2cc(-c3ccccc3)c(C(F)(F)F)nn2)C[C@H](C)N1 (as salt: hydrochloric acid salt) [Example E4, cis-6-(3,5-Dimethylpiperazin-1-yl)-4-phenyl-3-trifluoromethyl-pyridazine]	285.4 °C				
	FC(F)(F)c1nnc(N2CCN(Cc3cccnc3)CC2)cc1-c1ccccc1 [Example E37]		562 nM	178 nM	> 10000 nM	
	CCCN1CCN(c2cc(-c3ccccc3)c(C(F)(F)F)nn2)CC1 [Example E24]	129.8 °C	67.6 nM	> 10000 nM	5370 nM	
	COc1ccccc1-c1cc(N2CCNCC2)nnc1C(F)(F)F (as salt: hydrochloric acid salt) [Example E31]	287.7 °C				
	FC(F)(F)c1nnc(N2CCNCC2)cc1-c1cccs1 [Example E19]	112.6 °C	1380 nM	148 nM	1950 nM	
	CN(C)c1ccc(-c2cc(N3CCNCC3)nnc2C(F)(F)F)cc1 (as salt: hydrochloric acid salt) [Example E32]	198.7 °C				
	FC(F)(F)c1nnc(N2CCNCC2)cc1-c1cccc(Cl)c1 [Example E16]	178.8 °C	4790 nM	550 nM	245 nM	
	CN1CCN(c2cc(-c3ccccc3)c(C(F)(F)F)nn2)CC1 [Example E22]		776 nM	38.9 nM	1260 nM	
	C[C@@H]1CN(c2cc(-c3ccccc3)c(C(F)(F)F)nn2)C[C@H](C)N1 [Example E4, cis-6-(3,5-Dimethylpiperazin-1-yl)-4-phenyl-3-trifluoromethyl-pyridazine]		3800 nM	> 10000 nM	8510 nM	
	Cc1cscc1-c1cc(N2CCNCC2)nnc1C(F)(F)F [Example E29]	101 °C	3550 nM	> 10000 nM	537 nM	
